In brackets after ≈: the same amount, converted by molar mass. Non-standard residues stand in square brackets, D forms with d. Residues, ends and D or L forms follow the SMILES beside them. No end group written: not given here.
Assays:
erythrocytes = format: cell-based
Protocol: Hemolytic activity assays were carried out using erythrocytes, using triton X-100 as lysis control agent. Hemolytic activities were analyzed by reading each well with a plate reader spectrophotometer device at 414 nm and the % lysis rate was calculated in Microsoft Excel according to the following formula (Eren et al. [2008]). Lysis%=[OD414-OD414blank]/[OD414totallysis-OD414blank]×100

MRSA = format: cell-based, Methicillin-Resistant S. aureus
Text: (§1) NET1, NET2, NET3, and NET4 peptide antibiotics were used in the experiments. For the purpose of the study, both clinical isolates Methicillin-Resistant S. aureus (MRSA), Vancomycin-resistant Enterococcus (VRE), E. coli ER2566, E. coli 13846 bacteria and ATCC strains S. aureus and E. coli bacteria were used in the MIC study. All strains used in this study have been deposited in a strain collection of the Research Laboratory of Acibadem Mehmet Ali Aydinlar University. For experiment 0.5 McFarland bacterial suspension was prepared in Müeller Hinton Broth (MHB) media. In the 96-well plate, serial dilutions of peptide antibiotics starting from 512 to 0 μg/mL were made in MHB media and added 5 µl of bacterial suspensions. After incubated overnight at 37°C, results were evaluated according to turbidity (Teh et al. [2017]). Ampicillin was used as positive controls.

VRE = format: cell-based, Vancomycin-resistant Enterococcus
Text: as §1

S. aureus ATCC29213 = format: cell-based
Text: as §1

E. coli ER2566 = format: cell-based
Text: as §1

E. coli NTCC13846 = format: cell-based
Text: as §1

E. coli ATCC25922 = format: cell-based
Text: as §1

S. aureus ATCC25923 = format: cell-based
Text: as §1

E. coli = test: SEM of cell membrane integrity; format: cell-based; conditions: 16 µg/mL peptide, 10^5 CFU/mL, 37°C, 4–5 h
Protocol: The effect of NET1 peptides on the integrity of E. coli cell membranes was shown by SEM (Wang et al. [2018]). […] Peptide molecules were mixed with 10^5 CFU/mL of E. coli and incubated at 37°C for 4–5 h. […] After incubation, 20 µL of the mixture containing peptide antibiotics and bacteria was applied to a dialysis membrane. Then, it was fixed and imaged by the SEM microscope. As a negative control, bacteria which was not treated with peptide molecules were also used.

in vitro = format: cell-based
Text: (§2) MTT Cell Proliferation Kit (Sigma), a colorimetric method, was used for this test to evaluate the damage that peptides can cause in eukaryotic cells and all cell lines used in this study have been deposited in a collection of the Research Laboratory of Acibadem Mehmet Ali Aydinlar University. The cell lines of 3T3 (ATCC CRL-1658) and HaCaT (ATCC PCS-200-011) were revived under appropriate culture conditions and made ready for the experiment. The final concentration of peptides reached 64 to 0.5 μg/mL. Samples were worked in triplicates for each concentration. Cells incubated without peptide-treatment under the same conditions were used as a control. Magainin II, a known natural AMP that has no cytotoxic effects, was used as a positive control (Bacalum and Radu [2015]). The results were analyzed by reading them with a 96-well plate reader at 550 and 690 nm.

3T3 cell line = test: in vitro; format: cell-based
Text: as §2

HaCaT cell line = test: in vitro; format: cell-based
Text: as §2

Proteinase K = Proteinase K (Parengyodontium album, UniProt P06873); test: Protease resistance, Proteinase K treatment with HPLC analysis; format: in vitro ADME; conditions: analytical HPLC
Protocol: Proteinase K was used for testing the resistance of the designed peptides to proteases, since Proteinase K, a serine protease with broad-spectrum cleavage activity that preferentially cleaves aliphatic and aromatic amino acid residues, is widely used in the literature to determine the protease resistance of antimicrobial peptides (Lucio et al. [2017], Wang et al. [2019]). Afterwards, HPLC characterization was performed to understand the effect of Proteinase K on peptides.

MRSA biofilm [1] = test: Antibiofilm activity, CoMIC method; format: cell-based, Methicillin-resistant S. aureus; conditions: peptides added just before the start of biofilm formation
Protocol: Ninety microliters of 0.5 McF Methicillin-resistant S. aureus (MRSA) (1.5×10^8 CFU/mL) in Congo Red Broth media with fructose was transferred into wells. Plates were incubated at 37°C. At the time just before the start of biofilm formation as optimized in Fig. 4, 10 µL of 1:2 serial dilutions of the antimicrobial peptides (2560–0 µg/mL) was added in wells. So that, final concentrations of peptides were 256–0 µg/mL. Incubation of media continued overnight. Then, wells were evaluated according to their black color formation.

MRSA biofilm [2] = test: Antibiofilm activity, conventional crystal violet (CV) method; format: cell-based, Methicillin-resistant S. aureus
Protocol: There was 90 µL of 10^6 CFU/mL MRSA in MHB media with fructose transferred into wells. Then, 10 µL of 1:2 serial dilutions of the antimicrobial peptides (1280–0 µg/mL) was added in wells. So that, final concentrations of peptides were 128–0 µg/mL. Plates were incubated at 37°C overnight. After overnight incubation, they were analyzed with conventional CV method. For this purpose, the bacterial cultures were removed, and wells were washed with distilled water. 200 µl of 1% CV dye was added to each well and incubated at room temperature for 15 min in the dark. Then, CV dye was removed, and wells were washed with water. After dried the plate in an oven at 45–50°C, 33% acetic acid was added into wells to dissolve the dye and wells were spectrophotometrically read by Varioscan (Thermo, USA) at 590 nm (Stepanović et al. [2000]). Biofilm inhibiton rates (%) were calculated by the following formula (Liu et al. [2021]): (1-A590ofwellstreatedwithpeptides/[…])×100
Before this calculation, the values obtained from all wells were subtracted from the value from the empty wells (Blank).

Staphylococcus aureus = test system: Staphylococcus aureus; design: method as in Dean et al. [2011]; conditions: ref Dean et al. [2011]; cited from earlier work

Proteinase K, sequence (P06873 106-384): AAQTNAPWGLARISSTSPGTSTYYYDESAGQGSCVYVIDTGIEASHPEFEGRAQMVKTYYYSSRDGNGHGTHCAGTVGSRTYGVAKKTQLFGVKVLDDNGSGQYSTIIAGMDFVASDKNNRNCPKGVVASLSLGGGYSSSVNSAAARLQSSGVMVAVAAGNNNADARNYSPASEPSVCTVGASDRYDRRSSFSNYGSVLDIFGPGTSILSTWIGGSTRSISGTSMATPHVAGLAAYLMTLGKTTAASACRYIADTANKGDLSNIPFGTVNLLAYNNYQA

CC(C)C[C@@H](NC(=O)[C@H](CCCNC(=N)N)NC(=O)[C@@H](CC(C)C)NC(=O)[C@@H](CC(C)C)NC(=O)[C@@H](CC(C)C)NC(=O)[C@@H](N)CCCNC(=N)N)C(=O)N[C@H](CC(C)C)C(=O)N[C@@H](CCCNC(=N)N)C(=O)N[C@@H](CCCNC(=N)N)C(=O)N[C@H](CC(C)C)C(=O)N[C@H](CC(C)C)C(=O)N[C@@H](CCCNC(=N)N)C(=O)N[C@H](CC(C)C)C(=O)N[C@H](CC(C)C)C(=O)N[C@H](CC(C)C)C(=O)N[C@@H](CCCNC(=N)N)C(N)=O [NET1, RLLLRLLRRLLRLLLR-NH2] (H-R[dL][dL][dL]R[dL][dL]RR[dL][dL]R[dL][dL][dL]R-NH2; N-terminus assumed)
HC50 value as times the MIC value (erythrocytes): 16–32 times | therapeutic index for hemolytic activities (erythrocytes): 32 | MIC (MRSA): 2 µg/mL (≈ 0.959 µM) | MIC (VRE): 0.5 µg/mL (≈ 0.24 µM) | MIC (S. aureus ATCC29213): 2 µg/mL (≈ 0.959 µM) | MIC (E. coli ER2566): <0.25 µg/mL | MIC (E. coli NTCC13846): 4 µg/mL (≈ 1.92 µM) | MIC (E. coli ATCC25922): 2 µg/mL (≈ 0.959 µM) | MIC (S. aureus ATCC25923): 4 µg/mL (≈ 1.92 µM) | effect on E. coli cells seen by SEM (E. coli): lethal to E. coli | IC50 (in vitro; human): 64 µg/mL (≈ 30.7 µM) | IC50 (in vitro; mouse): 32 µg/mL (≈ 15.3 µM) | therapeutic index for cytotoxic activities (3T3 cell line): 16 | IC50 value as times the MIC value (HaCaT cell line): 16-32 times | therapeutic index for cytotoxic activities (HaCaT cell line): 32 | resistance to proteases (HPLC after proteinase K treatment) (Proteinase K): not fractionated by proteases | Peptide concentration inhibiting the biofilm at 100%, CoMIC (MRSA biofilm [1]): 64 µg/mL | concentration that provided over 50% biofilm inhibition (MRSA biofilm [2]; CV method): 2 µg/mL | Peptide concentration inhibiting the biofilm at 100%, Crystal Violet (MRSA biofilm [2]; peptides added at the very beginning of culture): 4 µg/mL

LL-37: LL-37 peptide, only D-form compared with only L-form in a cited study (LLGDFFRKSKEKIGKEFKRIVQRIKDFLRNLVPRTES; not fully specified; also: all-D and all-L forms; UniProt P49913 134-170, looked up)
activity of the D-form, times lower than L-form (Staphylococcus aureus): 10 times
